From patent publication US12077503B2, “Substituted cyclic amides and their use as herbicides” (FMC CORPORATION, priority 2015, dated 2024)

Tests used:
Assay type in all cases: in vivo
[1] = test system: velvetleaf (Abutilon theophrasti); test: Test G Post-Emergence Protocol; settings: Abutilon theophrasti, post-emergence, 312 h
Outline: (§1)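 Foliar application was made 8 days after sowing, using an aqueous spray of the active in acetone/water (50:50) with 0.5% Tween 20, at doses of 15.625, 62.5 or 250 g/ha. Injury was assessed 13 days later, where 100 meant the plant was fully damaged.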

[2] = test system: barnyardgrass (Echinochloa crus-galli); test: Test G Post-Emergence Protocol; settings: Echinochloa crus-galli, post-emergence, 312 h
Outline: as §1

[3] = test system: redroot pigweed (Amaranthus retroflexus); test: Test G Post-Emergence Protocol; settings: Amaranthus retroflexus, post-emergence, 312 h
Outline: as §1

[4] = test system: ivy-leaved morning glory (Ipomoea hederacea); test: Test G Post-Emergence Protocol; settings: Ipomoea, post-emergence, 312 h
Outline: as §1

[5] = test system: corn (Zea mays); test: Test G Post-Emergence Protocol; settings: Zea mays, post-emergence, 312 h
Outline: as §1

[6] = test system: giant foxtail (Setaria faberi); test: Test G Post-Emergence Protocol; settings: Setaria faberi, post-emergence, 312 h
Outline: as §1

[7] = test system: velvetleaf (Abutilon theophrasti); test: Test G Pre-Emergence Protocol; settings: Abutilon theophrasti, pre-emergence, 312 h, evaluated after 13 days
Outline: (§2)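 Test compound in 0.5% Tween 20 acetone/water (50:50) was applied at three rates (15.625, 62.5, 250 g/ha) to soil sown one day earlier. After 13 days plants were scored for injury, where 0 means unaffected and 100 means completely damaged.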

[8] = test system: barnyardgrass (Echinochloa crus-galli); test: Test G Pre-Emergence Protocol; settings: Echinochloa crus-galli, pre-emergence, 312 h, evaluated after 13 days
Outline: as §2

[9] = test system: redroot pigweed (Amaranthus retroflexus); test: Test G Pre-Emergence Protocol; settings: Amaranthus retroflexus, pre-emergence, 312 h, evaluated after 13 days
Outline: as §2

[10] = test system: ivy-leaved morning glory (Ipomoea hederacea); test: Test G Pre-Emergence Protocol; settings: Ipomoea, pre-emergence, 312 h, evaluated after 13 days
Outline: as §2

[11] = test system: corn (Zea mays); test: Test G Pre-Emergence Protocol; settings: Zea mays, pre-emergence, 312 h, evaluated after 13 days
Outline: as §2

[12] = test system: giant foxtail (Setaria faberi); test: Test G Pre-Emergence Protocol; settings: Setaria faberi, pre-emergence, 312 h, evaluated after 13 days
Outline: as §2

## CN1C[C@@H](c2ccc(C(F)(F)F)cc2)[C@H](C(=O)Nc2ccc(Cl)nn2)C1=O (racemic) [Compound 1561]
[1]; 15.625 g ai/ha, evaluated after 13 days (100=total damage to plant; 0=no damage to plant), read-out: Velvetleaf damage rating
  pest or weed control at 15.625 g/ha: 0%
[1]; 62.5 g ai/ha, evaluated after 13 days, read-out: Velvetleaf damage rating (100=total damage to plant; 0=no damage to plant)
  pest or weed control at 62.5 g/ha: 40%
[1]; 250 g ai/ha, evaluated after 13 days, read-out: damage to plant, Velvetleaf (100=total damage to plant; 0=no damage to plant)
  pest or weed control at 250 g/ha: 20%
[2]; 15.625 g ai/ha, evaluated after 13 days (100=total damage to plant; 0=no damage to plant), read-out: Barnyardgrass damage rating
  pest or weed control at 15.625 g/ha: 0%
[2]; 62.5 g ai/ha, evaluated after 13 days, read-out: Barnyardgrass damage rating (100=total damage to plant; 0=no damage to plant)
  pest or weed control at 62.5 g/ha: 20%
[2]; 250 g ai/ha, evaluated after 13 days, read-out: damage to plant, Barnyardgrass (100=total damage to plant; 0=no damage to plant)
  pest or weed control at 250 g/ha: 50%
[3]; 15.625 g ai/ha, evaluated after 13 days (100=total damage to plant; 0=no damage to plant), read-out: Pigweed, Redroot damage rating
  pest or weed control at 15.625 g/ha: 0%
[3]; 62.5 g ai/ha, evaluated after 13 days, read-out: Pigweed, Redroot damage rating (100=total damage to plant; 0=no damage to plant)
  pest or weed control at 62.5 g/ha: 20%
[3]; 250 g ai/ha, evaluated after 13 days, read-out: damage to plant, Pigweed, Redroot (100=total damage to plant; 0=no damage to plant)
  pest or weed control at 250 g/ha: 30%
[4]; 15.625 g ai/ha, evaluated after 13 days (100=total damage to plant; 0=no damage to plant), read-out: Morningglory, Ivy-leaved damage rating
  pest or weed control at 15.625 g/ha: 0%
[4]; 62.5 g ai/ha, evaluated after 13 days, read-out: Morningglory, Ivy-leaved damage rating (100=total damage to plant; 0=no damage to plant)
  pest or weed control at 62.5 g/ha: 10%
[4]; 250 g ai/ha, evaluated after 13 days, read-out: damage to plant, Morningglory, Ivy-leaved (100=total damage to plant; 0=no damage to plant)
  pest or weed control at 250 g/ha: 60%
[5]; 15.625 g ai/ha, evaluated after 13 days (100=total damage to plant; 0=no damage to plant), read-out: Corn damage rating
  plant injury at 15.625 g/ha: 0%
[5]; 62.5 g ai/ha, evaluated after 13 days, read-out: Corn damage rating (100=total damage to plant; 0=no damage to plant)
  plant injury at 62.5 g/ha: 0%
[5]; 250 g ai/ha, evaluated after 13 days, read-out: damage to plant, Corn (100=total damage to plant; 0=no damage to plant)
  plant injury at 250 g/ha: 50%
[6]; 15.625 g ai/ha, evaluated after 13 days (100=total damage to plant; 0=no damage to plant), read-out: Foxtail, Giant damage rating
  pest or weed control at 15.625 g/ha: 0%
[6]; 62.5 g ai/ha, evaluated after 13 days, read-out: Foxtail, Giant damage rating (100=total damage to plant; 0=no damage to plant)
  pest or weed control at 62.5 g/ha: 10%
[6]; 250 g ai/ha, evaluated after 13 days, read-out: damage to plant, Foxtail, Giant (100=total damage to plant; 0=no damage to plant)
  pest or weed control at 250 g/ha: 60%
[7]; 15.625 g ai/ha, read-out: Velvetleaf damage rating (100=total damage to plant; 0=no damage to plant)
  pest or weed control at 15.625 g/ha: 0%
[7]; 62.5 g ai/ha, 100=total damage to plant, 0=no damage to plant, read-out: plant damage rating, Velvetleaf
  pest or weed control at 62.5 g/ha: 0%
[7]; 250 g ai/ha, read-out: Velvetleaf damage rating (100=total damage to plant; 0=no damage to plant)
  pest or weed control at 250 g/ha: 10%
[8]; 15.625 g ai/ha, read-out: Barnyard grass damage rating (100=total damage to plant; 0=no damage to plant)
  pest or weed control at 15.625 g/ha: 30%
[8]; 62.5 g ai/ha, 100=total damage to plant, 0=no damage to plant, read-out: plant damage rating, Barnyardgrass
  pest or weed control at 62.5 g/ha: 50%
[8]; 250 g ai/ha, read-out: Barnyardgrass damage rating (100=total damage to plant; 0=no damage to plant)
  pest or weed control at 250 g/ha: 80%
[9]; 15.625 g ai/ha, read-out: Pigweed, Redroot damage rating (100=total damage to plant; 0=no damage to plant)
  pest or weed control at 15.625 g/ha: 0%
[9]; 62.5 g ai/ha, 100=total damage to plant, 0=no damage to plant, read-out: plant damage rating, Pigweed, Redroot
  pest or weed control at 62.5 g/ha: 20%
[9]; 250 g ai/ha, read-out: Pigweed, Redroot damage rating (100=total damage to plant; 0=no damage to plant)
  pest or weed control at 250 g/ha: 30%
[10]; 62.5 g ai/ha, 100=total damage to plant, 0=no damage to plant, read-out: plant damage rating, Morningglory, Ivy-leaved
  pest or weed control at 62.5 g/ha: 0%
[10]; 250 g ai/ha, read-out: Morningglory, Ivy-leaved damage rating (100=total damage to plant; 0=no damage to plant)
  pest or weed control at 250 g/ha: 20%
[11]; 15.625 g ai/ha, read-out: Corn damage rating (100=total damage to plant; 0=no damage to plant)
  plant injury at 15.625 g/ha: 10%
[11]; 62.5 g ai/ha, 100=total damage to plant, 0=no damage to plant, read-out: plant damage rating, Corn
  plant injury at 62.5 g/ha: 0%
[11]; 250 g ai/ha, read-out: Corn damage rating (100=total damage to plant; 0=no damage to plant)
  plant injury at 250 g/ha: 20%
[12]; 15.625 g ai/ha, read-out: Foxtail, Giant damage rating (100=total damage to plant; 0=no damage to plant)
  pest or weed control at 15.625 g/ha: 30%
[12]; 62.5 g ai/ha, 100=total damage to plant, 0=no damage to plant, read-out: plant damage rating, Foxtail, Giant
  pest or weed control at 62.5 g/ha: 60%
[12]; 250 g ai/ha, read-out: Foxtail, Giant damage rating (100=total damage to plant; 0=no damage to plant)
  pest or weed control at 250 g/ha: 70%
